Here are results for 12 compounds from PubChem BioAssay (NCI).

Molecules are shown by their SMILES. “And” between values parts separate entries of the source, which are not always exact repeats. Equal entries are not always repeated.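 Exposure lasted 48 hours, with cells grown in 96-well plates and compounds tested at five concentrations. GI50 = concentration required for 50% inhibition of growth. The concentration for full growth arrest is given as TGI.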

Some test systems named below: 786-0 renal; DU-145 prostate; EKVX NSCLC; HT29 colon; KM12 colon; MALME-3M melanoma; MCF7 breast; MDA-MB-435; NCI-H522 lung; OVCAR-8 ovarian.
What all share (experiment): inhibition of tumour cell growth, NCI panel, 48 h

For `[Cl][Cd][Cl]`, the GI50 is 21 µM and 8.67 µM with 786-0 renal; 24 µM in the experiment with DU-145 prostate; 24.7 µM and 9.95 µM with EKVX NSCLC; 45.4 µM with HT29 colon; 17.9 µM and 9.62 µM in the experiment on KM12 colon; 5.5 µM and > 34.7 µM and 3.68 µM in the experiment on MALME-3M melanoma. For the same compound, the GI50 was 9.11 µM in the experiment on MCF7 breast; 8.26 µM in the experiment on MDA-MB-435; 0.32 µM and 1.39 µM and 0.349 µM in the experiment with NCI-H522 lung; 119 µM with OVCAR-8 ovarian. In addition, the TGI in the experiment on 786-0 renal is 44.4 µM and 17.6 µM; with DU-145 prostate, 63.6 µM; in the experiment with EKVX NSCLC, 52 µM and 19.9 µM; with HT29 colon, 130 µM; in the experiment with KM12 colon, 35.1 µM and 30.1 µM; in the experiment on MALME-3M melanoma it was > 49.4 µM and 9.41 µM. In addition, the TGI is 19.2 µM in the experiment on MCF7 breast; 30.9 µM in the experiment with MDA-MB-435; 3.65 µM and 1.55 µM with NCI-H522 lung; 272 µM with OVCAR-8 ovarian.
`C=C1c2c(Cl)ccc(O)c2C(O)=C2C(=O)[C@]3(O)C(O)=C(C(N)=O)C(=O)[C@@H](N(C)C)[C@@H]3[C@@H](O)[C@H]12`: the GI50 was 1.17 µM with 786-0 renal; 1.62 µM in the experiment on DU-145 prostate; 1.51 µM in the experiment with EKVX NSCLC; 1.55 µM in the experiment with HT29 colon; 1.49 µM in the experiment on KM12 colon; 1.15 µM in the experiment on MALME-3M melanoma. The GI50 is 1.76 µM with MCF7 breast, 1.53 µM in the experiment with MDA-MB-435, 1.01 µM in the experiment with NCI-H522 lung and 1.32 µM in the experiment with OVCAR-8 ovarian. Also, the TGI in the experiment on 786-0 renal amounted to 5.22 µM; with DU-145 prostate it was 9.15 µM; in the experiment with EKVX NSCLC, 13 µM; in the experiment on HT29 colon it was 6.18 µM; with KM12 colon it was 6.17 µM; with MALME-3M melanoma it was 3.45 µM. The TGI with MCF7 breast came out at 6.66 µM; in the experiment with MDA-MB-435, 7.97 µM; with NCI-H522 lung, 3.06 µM; in the experiment on OVCAR-8 ovarian, 8.12 µM.
Regarding `C/C=C(\C)C(=O)N[C@H]1C(O)C[C@]2(C)C3CC[C@@]4(C)C(CC[C@@H]4C(C)N(C)C)C3CCC2C1O` (stereo partly specified), the GI50 with 786-0 renal is 4.95 µM; with DU-145 prostate, 12.6 µM; in the experiment with EKVX NSCLC it was 9.38 µM; in the experiment with HT29 colon, 1.4 µM; in the experiment on KM12 colon, 6.85 µM; in the experiment with MALME-3M melanoma, 2.6 µM. Moreover, the GI50 with MCF7 breast was 2.89 µM; in the experiment on MDA-MB-435, 2.54 µM; with NCI-H522 lung, 11.2 µM; in the experiment on OVCAR-8 ovarian, 28.9 µM. Moreover, the TGI in the experiment with 786-0 renal is 10.6 µM; in the experiment with DU-145 prostate, above 83.3 µM; in the experiment with EKVX NSCLC, above 50.9 µM; in the experiment on HT29 colon, 5.18 µM; with KM12 colon, 25.8 µM; in the experiment with MALME-3M melanoma, 7.47 µM. Besides, the TGI in the experiment on MCF7 breast was 17.4 µM; in the experiment with MDA-MB-435 it was 5.85 µM; with NCI-H522 lung, above 43.7 µM; in the experiment with OVCAR-8 ovarian, above 90.8 µM.
For the compound `CN(C)CCN1C(=O)c2cccc3cccc(c23)C1=O`, the GI50 is 24 µM in the experiment with 786-0 renal; 12.4 µM in the experiment with DU-145 prostate; above 25 µM in the experiment on EKVX NSCLC; 11.7 µM in the experiment with HT29 colon; 12.9 µM with KM12 colon; 17.6 µM with MALME-3M melanoma. Also, the GI50 in the experiment on MCF7 breast was 9.31 µM; in the experiment on MDA-MB-435, above 25 µM; with NCI-H522 lung, 15.1 µM; in the experiment with OVCAR-8 ovarian, 13.2 µM. The TGI in the experiment with 786-0 renal, in the experiment on DU-145 prostate, in the experiment with EKVX NSCLC, with HT29 colon, in the experiment on KM12 colon and with MALME-3M melanoma was above 25 µM in each case. Moreover, the TGI in the experiment on MCF7 breast, in the experiment on MDA-MB-435, in the experiment with NCI-H522 lung and with OVCAR-8 ovarian was above 25 µM in each case.
Regarding `CC(Br)C(=O)Nc1ccc(C(=O)O)c(O)c1` (stereo unspecified), the TGI in the experiment with 786-0 renal was above 100 µM; with DU-145 prostate, above 100 µM; in the experiment on EKVX NSCLC it was above 100 µM; in the experiment on HT29 colon, above 100 µM; in the experiment with KM12 colon, above 100 µM; in the experiment with MALME-3M melanoma, 42.1 µM. Also, the TGI is above 100 µM with MCF7 breast, above 100 µM with MDA-MB-435, 47.1 µM in the experiment with NCI-H522 lung and above 100 µM in the experiment on OVCAR-8 ovarian.
Take `O=C(Nc1ccc(I)cc1F)c1cc(Cl)ccc1O`: the GI50 in the experiment with 786-0 renal is 2.19 µM; in the experiment on DU-145 prostate, 0.681 µM; with EKVX NSCLC, 1.03 µM; in the experiment on HT29 colon, 3.29 µM; in the experiment on KM12 colon, 2.31 µM; with MALME-3M melanoma it was 0.346 µM. Moreover, the GI50 in the experiment with MCF7 breast is 0.552 µM; in the experiment with MDA-MB-435, 0.583 µM; in the experiment with NCI-H522 lung, 0.324 µM; in the experiment on OVCAR-8 ovarian it was 0.623 µM. Besides, the TGI in the experiment with 786-0 renal is 7.18 µM; in the experiment with DU-145 prostate, above 100 µM; in the experiment with EKVX NSCLC, 6.81 µM; in the experiment on HT29 colon, 27.3 µM; in the experiment on KM12 colon, 6.01 µM; with MALME-3M melanoma it was 1.83 µM. Further, the TGI in the experiment with MCF7 breast was above 19.8 µM; in the experiment on MDA-MB-435, 4.9 µM; in the experiment with NCI-H522 lung, 4.68 µM; in the experiment with OVCAR-8 ovarian, 11 µM.
Regarding `CC(C)COC(=O)c1ccc2[nH]c(O)c(C=Nc3ccc(S(N)(=O)=O)cc3)c2c1`, the GI50 in the experiment with 786-0 renal is 1.21 µM; in the experiment with DU-145 prostate, 0.805 µM; in the experiment on EKVX NSCLC, 3.97 µM; in the experiment with HT29 colon, 1.63 µM; in the experiment on KM12 colon it was 1.06 µM; with MALME-3M melanoma it was 4.97 µM. Further, the GI50 was 1.24 µM with MCF7 breast, 1.68 µM in the experiment on MDA-MB-435, 4.03 µM in the experiment on NCI-H522 lung and 1.04 µM in the experiment on OVCAR-8 ovarian. The TGI came out at 4.24 µM in the experiment on 786-0 renal; 3.8 µM in the experiment on DU-145 prostate; 15.6 µM in the experiment on EKVX NSCLC; 5.21 µM in the experiment with HT29 colon; 3.87 µM with KM12 colon; 10.9 µM in the experiment with MALME-3M melanoma. Besides, the TGI in the experiment on MCF7 breast was 4.5 µM; with MDA-MB-435, 5.79 µM; with NCI-H522 lung it was 8.5 µM; with OVCAR-8 ovarian, 4.62 µM.
`COc1ccc(C2=CC(c3ccc(OC)c(OC)c3)c3c(c4ccccc4oc3=O)O2)cc1OC` (stereo unspecified): the GI50 with 786-0 renal is 1.15 µM; in the experiment with DU-145 prostate, 1.73 µM; in the experiment with EKVX NSCLC, 1.52 µM; in the experiment on HT29 colon it was 0.822 µM; in the experiment on KM12 colon it was 1.25 µM; in the experiment on MALME-3M melanoma it was above 100 µM. The GI50 in the experiment with MCF7 breast was 0.424 µM; in the experiment on MDA-MB-435, 0.244 µM; in the experiment with NCI-H522 lung, 1.44 µM; in the experiment with OVCAR-8 ovarian, 4.9 µM. In addition, the TGI was 11.7 µM in the experiment with 786-0 renal; above 30.7 µM in the experiment with DU-145 prostate; above 100 µM with EKVX NSCLC; 31 µM with HT29 colon; above 100 µM with KM12 colon; above 100 µM in the experiment with MALME-3M melanoma. Besides, the TGI is above 100 µM in the experiment with MCF7 breast, 0.831 µM with MDA-MB-435 and above 100 µM in the experiment with OVCAR-8 ovarian.
Regarding `COc1ccc2nc(NC(=O)c3cccnc3Nc3cc(OC)c(OC)c(OC)c3)sc2c1`, the GI50 with 786-0 renal is 5.6 µM; with DU-145 prostate, 14.6 µM; with EKVX NSCLC, 11.5 µM; with HT29 colon, 17.7 µM; in the experiment with KM12 colon, 4.51 µM; with MALME-3M melanoma, 10.1 µM. Further, the GI50 with MCF7 breast was 0.515 µM; in the experiment with MDA-MB-435 it was 1.85 µM; in the experiment with NCI-H522 lung it was 2.6 µM; in the experiment with OVCAR-8 ovarian, 6.52 µM. Further, the TGI was determined as 19.7 µM in the experiment with 786-0 renal; 33.8 µM with DU-145 prostate; 55.6 µM in the experiment with EKVX NSCLC; 39.2 µM in the experiment on HT29 colon; 19 µM in the experiment with KM12 colon; 24.6 µM in the experiment with MALME-3M melanoma. Further, the TGI in the experiment with MCF7 breast came to 13.6 µM; with MDA-MB-435, 10.4 µM; in the experiment with NCI-H522 lung, 12 µM; in the experiment with OVCAR-8 ovarian, 22.6 µM.
Take `Cc1cccc(Nc2cnc(N)nc2N)c1`: the TGI in the experiment with 786-0 renal, in the experiment with DU-145 prostate, with EKVX NSCLC, in the experiment on HT29 colon, with KM12 colon and with MALME-3M melanoma was above 100 µM in each case. In addition, the TGI in the experiment with MCF7 breast, with MDA-MB-435, in the experiment with NCI-H522 lung and with OVCAR-8 ovarian was above 100 µM in each case.
For the compound `CO[C@H]1CC(c2ccc[nH]2)=N[C@]12O[C@@H](C)C[C@@H]1CCCCCCCc3ccc([nH]3)[C@H]12`, the GI50 in the experiment on 786-0 renal was 1.25 µM; with DU-145 prostate, 1.49 µM; in the experiment with EKVX NSCLC, 0.975 µM; in the experiment on HT29 colon, 1.04 µM; in the experiment on KM12 colon, 0.933 µM; in the experiment on MALME-3M melanoma it was 0.886 µM. For the same compound, the GI50 with MCF7 breast was 0.968 µM; in the experiment on MDA-MB-435, 1.1 µM; in the experiment with NCI-H522 lung it was 1.29 µM; in the experiment on OVCAR-8 ovarian, 1.17 µM. Further, the TGI with 786-0 renal was 6.53 µM; with DU-145 prostate it was above 23.1 µM; with EKVX NSCLC, 7.3 µM; in the experiment on HT29 colon, above 33.3 µM; with KM12 colon, 6.15 µM; with MALME-3M melanoma it was 3.62 µM. The TGI in the experiment on MCF7 breast is above 16.7 µM; with MDA-MB-435, 4.29 µM; in the experiment with NCI-H522 lung it was 9.98 µM; in the experiment on OVCAR-8 ovarian, above 33.3 µM.
As for `Clc1nc(Cl)c2ncn(Cc3ccc(Cn4cnc5c(Cl)nc(Cl)nc54)cc3)c2n1`, the GI50 in the experiment with 786-0 renal is 1.6 µM; in the experiment with KM12 colon it was 12.5 µM; with MALME-3M melanoma it was 5.62 µM; with MCF7 breast, 2.22 µM; with MDA-MB-435, 14.2 µM; with NCI-H522 lung, 5.65 µM. In addition, the GI50 in the experiment on OVCAR-8 ovarian was 10.4 µM. For the same compound, the TGI worked out at 11.2 µM with 786-0 renal; 10 µM with DU-145 prostate; 25 µM in the experiment on EKVX NSCLC; 16.4 µM in the experiment with HT29 colon; 31.2 µM with KM12 colon; 29.3 µM with MALME-3M melanoma. Further, the TGI in the experiment with MCF7 breast was found to be 14.9 µM; in the experiment on MDA-MB-435, 33.6 µM; with NCI-H522 lung, 25 µM; with OVCAR-8 ovarian, 25 µM.
